Laboratory results taken from patent US20060063930A1, “Compositions and methods comprising proteinase activated receptor antagonists” (priority 2004, published 2006).
Where a name gives a salt, the structure may show the parent alone. Where no end group is shown, it is not given here. [ ]: non-standard residue; d: D form. Phe(4-NH2) = Nc1ccc(C[C@H](N)C(=O)O)cc1; Nip = nipecotic acid residue; Orn = NCCC[C@H](N)C(=O)O; Dab = NCC[C@H](N)C(=O)O; Dap = NC[C@H](N)C(=O)O

The molecules below were run on PAR-2 (assay: Inhibition of PAR-2 activating peptide (AP2) calcium signaling in cells pretreated with antagonist). Settings: mimetic antagonists; AUC of calcium mobilization treated/control; initially screened at 1 mM compound.
Assay type: cell-based, human
Set-up: key to PAR-2 AP2 Signaling Treated/Control (T/C) / PAR-2 AP2 Signaling Treated/Control: AUC of calcium mobilization, treated ÷ control wells
Experimental: In order to assess the potential of peptides and molecules selected above to block PAR-2 signaling, cells were pretreated with potential antagonist peptides for a predetermined amount of time and were subsequently treated with various GPCR agonists. Confluent Lewis lung carcinoma (LLC) cells were loaded for 30-60 minutes with the fluorescent dye Fluo-4. Final concentration 4 uM Fluo-4, 0.02% pluronic acid in physiological buffer. Cells were then washed with assay buffer, (HBSS containing 1 mM CaCl2, 1 mM MgSO4, and 2.5 mM probenecid). Cells were stimulated with various doses of PAR-2 activating peptide, PAR-1 activating peptide or ATP. Fluorescence was monitored using a Wallac 1470 fluorescent plate reader. (See Al-ani et. al Journal of Pharmacology and Experimental Therapeutics 290:2, 753-760). Additional compound screening was performed using U87-MG human glioma cells. In this assay cells were labeled with FLIPR Calcium 3 dye (Component A), which was dissolved in 10 mls of Assay Buffer without Probenecid. Loading buffer was prepared by diluting Component A with an additional 90 mls of Assay Buffer without Probenecid, giving a total volume of a 100 ml. For plate loading, 11 mls of FLIPR Calcium 3 dye (Component A) is placed into a 15 ml conical tube+110 μl of 250 mM Probenecid, at a final in-well working volume of 2.5 mM. Finally, 50 μl of Calcium 3 dye was added wells containing 100 μl media, and incubated 1 hr, 37° C., 5% CO2. Calcium signaling was then measured using a Flexstation II (Molecular Devices) following manufacturer's instructions.
Potential antagonist compounds were initially screened at 1 mM compound concentration. Those compounds with activity were then subjected to additional confirmatory testing. Activity is reported as treated/controlled (T/C) where the area under the curve (AUC) of calcium mobilization plots in treated wells is divided by the AUC of calcium mobilization plots in control wells to generate a measure of inhibition.

Going from `CCCCCC(=O)N1CCN(C(=O)CCCCCN)CC1` [ENMD-1039, N^1-hexanoyl-N^4-[6-aminohexanoyl]-piperazine] to `CCCC(=O)N1CCN(C(=O)CCCCCN)CC1` [ENMD-1036, N^1-butanoyl-N-4-[6′-aminohexanoyl]-piperazine], the “PAR-2 AP2 Signaling Treated/Control” value falls from 1.34 to 0.55.

Compared with `CC(C)CCn1c(=O)n(CCc2ccc(N)cc2)c2ccccc21` [ENMD-1573, 1-(4-aminophenethyl)-3-isopentyl-1H-benzo[d]imidazole-2(3H)-one], `CC(C)CCn1c(=O)n(CCc2ccc(NC(C)C)cc2)c2ccccc21` [ENMD-1563, 1-[4-(isopropylamine)-phenethyl]-3-isopentyl-1H-benzo[d]imidazole-2(3H)-one] is higher in “PAR-2 AP2 Signaling Treated/Control” value: 0.01 for the first, 0.62 for the second.

First: NCCCCOc1ccc(OCc2ccccc2)cc1 [ENMD-1566, 4-(4-(benzyloxy)phenoxy)butan-1-amine hydrochloride]
Second: NCCCOc1ccc(C(=O)NCC2CCCCC2)cc1 [ENMD-1411, 4-(3-aminopropoxy)-N-(cyclohexylmethyl)-benzamide]
The “PAR-2 AP2 Signaling Treated/Control” value of the first is lower: 0.01 for the first, 0.43 for the second.

First: NCCCCCC(=O)NCCNC(=O)CC1CCCCC1 [ENMD-1417, N-(2-(2-cyclohexylacetamido)ethyl)-6-aminohexan-amide]
Second: NCCCCCCNC(=O)c1cc(NC(=O)CC2CCCCC2)[nH]n1 [ENMD-1551, 5-(2-cyclohexyl-acetylamino)-1H-pyrazole-3-carboxylic acid (6-amino-hexyl)-amide]
The “PAR-2 AP2 Signaling Treated/Control” value of the first is lower: 0.38 for the first, 0.66 for the second.

Compared with `NCCCCCCNC(=O)C1CCS(=O)(=O)N1CCC1CCCCC1` (stereo not drawn) [ENMD-1547, N-(2-cyclohexyl)ethylisothiasolidine-1,1-dioxide-3-carboxylic acid-6-aminohexylamide], `CC(C)CCNC(=O)C1CCS(=O)(=O)N1CCCCCCN` (stereo not drawn) [ENMD-1546, N-(6-aminohexyl)isothiazolidine-1,1-dioxide-3-carboxylic acid isoamylamide] is higher in “PAR-2 AP2 Signaling Treated/Control” value: 0.24 for the first, 0.97 for the second.

First: NCCCCCC(=O)N[C@@H]1CC[C@H](C(=O)NCC2CCCCC2)C1 [ENMD-1505, N-cyclohexylmethyl-3S-(6-aminohexanamido)-cyclopentane-1R-carboxamide]
Second: CC(C)CNC(=O)[C@@H]1CC[C@@H](NC(=O)CCCCCN)C1 [ENMD-1504, N-isobutyl-3R-(6-aminohexanamido)-cyclopentane-1R-carboxamide]
The “PAR-2 AP2 Signaling Treated/Control” value of the first is lower: 0.19 for the first, 0.71 for the second.

Compared with `Cl.N[C@H]1CC[C@@H](C(=O)N2CCN(C(=O)CC3CCCCC3)CC2)CC1` [ENMD-1781, N^1-2-cyclohexylethanoyl-N-4-cis-4-amino-cyclohexane-carbonyl piperazine hydrochloride], `Cl.N[C@@H]1CCC[C@H](C(=O)N2CCN(C(=O)CC3CCCCC3)CC2)C1` [ENMD-1774, N^1-2-cyclohexylethanoyl-N-4-cis-3-amino-cyclohexane-carbonyl piperazine hydrochloride] is higher in “PAR-2 AP2 Signaling Treated/Control” value: 0.71 for the first, 0.75 for the second.

Compared with `CC(C)CNC(=O)C1CN(C(=O)CCCCCN)CCO1` (stereo not drawn) [ENMD-1524, 4-(6-Amino-hexanoyl)-morpholine-2-carboxylic acid isobutyl-amide], `CC(C)CC(=O)NC1CN(C(=O)CCCCCN)C1` [ENMD-1516, N-(6-amino-1-hexanoylazetidin3-yl)-3-methylbutanamide] is higher in “PAR-2 AP2 Signaling Treated/Control” value: 0.73 for the first, 0.87 for the second.

Compared with `CC(C)Cn1cccc1C(=O)NCCCCCCN` [ENMD-1537, N-(6-aminohexyl)-1-(2-methylpropyl)-2-pyrrolecarboxamide], `CC(C)CNC(=O)c1cccn1CCCCCCN` [ENMD-1569, 1-(6-aminohexyl)-2-[N′-isobutyl]-pyrrole carboxamide] is lower in “PAR-2 AP2 Signaling Treated/Control” value: 0.91 for the first, 0.77 for the second.

Compared with `CC(C)CCc1cn(CCCCCCN)nn1` [ENMD-1519, 1-(6-aminohexyl)-4-(3-methylbutyl)-1,2,3-triazole], `CC(C)CCn1c(=O)n(CCCCCCN)c2ccccc21` [ENMD-1517, 1-(6-aminohexyl)-3-[(3-methyl)butyl]benzimidazol(2)-one] is lower in “PAR-2 AP2 Signaling Treated/Control” value: 0.65 for the first, 0.52 for the second.

First: CC(C)CC(=O)Nc1ccc(NC(=O)CCCN)cc1 [ENMD-1397, N-(4-(3-methylbutanamido)phenyl)-4-aminobutyl-amide hydrobromide]
Second: NCCCCC(=O)Nc1ccc(C(=O)NCC2CCCCC2)cc1 [ENMD-1568, 4-(5-aminopentanamide)-N-(cyclohexylmethyl)-benzamide]
The “PAR-2 AP2 Signaling Treated/Control” value of the first is lower: 0.15 for the first, 0.92 for the second.

Going from `CC(C)CCCC(=O)N1CCN(C(=O)CCCCCN)CC1` [ENMD-1038, N^1-[5′-methylhexanoyl]-N^4-[6′-aminohexanoyl]-piperazine] to `CC(C)C(=O)N1CCN(C(=O)CCCCCN)CC1` [ENMD-1035, N′-[2′-methylpropanoyl]-N^4-[6′-aminohexanoyl]-piperazine], the “PAR-2 AP2 Signaling Treated/Control” value falls from 0.35 to 0.32.

First: CC(C)CC(=O)N1CC2CN(C(=O)CCCCCN)CC2C1 (stereo not drawn) [ENMD-1764]
Second: COC(=O)CCCCC(=O)N1CCN(C(=O)CC(C)C)CC1 [ENMD-1402, Methyl 6-(4-(3-methylbutanoyl)piperazin-1-yl)-6-oxohexanoate]
The “PAR-2 AP2 Signaling Treated/Control” value of the first is higher: 0.96 for the first, 0.64 for the second.

Going from `NCCCCCC(=O)Nc1cc(C(=O)NCC2CCCCC2)n[nH]1` [ENMD-1534, 5-(6-amino-hexanoylamino)-1H-pyrazole-3-carboxylic acid cyclohexylmethyl-amide] to `NCCCCC(=O)NCc1cc(C(=O)NCC2CCCCC2)no1` [ENMD-1558, 5-[(5-amino-pentanoylamino)-methyl]-isoxazole-3-carboxylic acid cyclohexylmethyl-amide], the “PAR-2 AP2 Signaling Treated/Control” value rises from 0.44 to 0.60.

Compared with `NCCCCCC(=O)Nc1nc(CC(=O)NCC2CCCCC2)cs1` [ENMD-1560, 6-amino-hexanoic acid {4-[(cyclohexylmethyl-carbamoyl)-methyl]-thiazol-2-yl}-amide], `CC(C)CNC(=O)Cc1csc(NC(=O)CCCCCN)n1` [ENMD-1554, 6-amino-hexanoic acid [4-(isobutylcarbamoyl-methyl)-thiazol-2-yl]-amide] is lower in “PAR-2 AP2 Signaling Treated/Control” value: 0.48 for the first, 0.44 for the second.

Compared with `Cl.O=C(CC1CCCCC1)N1CCN(C(=O)C2CNCCO2)CC1` (stereo not drawn) [ENMD-1780, N^1-2-cyclohexylethanoyl-N-4-morpholine-2-carbonyl-piperazine hydrochloride], `O=C(Cc1cnc[nH]1)N1CCN(C(=O)CC2CCCCC2)CC1` [ENMD-1071, 1-(4-(2-(1H-imidazol-4-yl)acetyl)piperazin-1-yl)-1-cyclohexyl-acetamide hydrochloride] is lower in “PAR-2 AP2 Signaling Treated/Control” value: 0.86 for the first, 0.16 for the second.

First: NCCC1CCN(c2cnc(C(=O)NCCC3CCCCC3)cn2)CC1 [ENMD-1778, cyclohexylethyl-6-(4-aminoethylpiperdine)-2-pyrazine amide]
Second: O=C(Cc1ccccn1)N1CCN(C(=O)CC2CCCCC2)CC1 [ENMD-1069, 1-(4-(2-cyclohexylacetyl)piperazin-1-yl)-2-(pyridin-2-yl)-acetaldehyde]
The “PAR-2 AP2 Signaling Treated/Control” value of the first is lower: 0.05 for the first, 0.94 for the second.

Compared with `Cl.O=C(CC1CCCCC1)Nc1ccc(NC(=O)C2CCCNC2)cc1` (stereo not drawn) [ENMD-1771, N-(4-(2-cyclohexylacetamido)phenyl) piperidine-3-carboxamide hydrochloride], `NCCCCNC(=O)c1ccc(NC(=O)C2CCCCC2)cc1` [ENMD-1511, N-(4-aminobutyl)-4-(cyclohexanecarboxamido)-benzamide hydrochloride] is higher in “PAR-2 AP2 Signaling Treated/Control” value: 0.05 for the first, 0.13 for the second.

Same assay, conditions: peptides; AUC of calcium mobilization treated/control; initially screened at 1 mM compound

Compared with LIG-Dab (LIG[Dab]) [ENMD-1026], LIGY [ENMD-1051] is higher in “PAR-2 AP2 Signaling Treated/Control (T/C)” value: 0.23 for the first, 0.83 for the second.

First: dI-dG-dK [ENMD-1383]
Second: LIG-(4-aminoF) (LIG[Phe(4-NH2)]) [ENMD-1030]
The “PAR-2 AP2 Signaling Treated/Control (T/C)” value of the first is higher: 0.48 for the first, 0.05 for the second.

Compared with LIGK-amide (LIGK-NH2) [ENMD-1020], “LIG-Orn (LIG[Orn]) [ENMD-1028, Orn=ornithine]” is lower in “PAR-2 AP2 Signaling Treated/Control (T/C)” value: 0.54 for the first, 0.36 for the second.

First: LIGH [ENMD-1054]
Second: IG-Dab (Ile-Gly-[Dab]) [ENMD-1024, Dab=diamino butanoic acid]
The “PAR-2 AP2 Signaling Treated/Control (T/C)” value of the first is higher: 0.83 for the first, 0.27 for the second.

First: L-Nip-GK (L[Nip]GK) [ENMD-1059]
Second: LPGK [ENMD-1053]
The “PAR-2 AP2 Signaling Treated/Control (T/C)” value of the first is higher: 0.97 for the first, 0.89 for the second.

Going from LIGN [ENMD-1047] to LIG-Dap (LIG[Dap]) [ENMD-1027], the “PAR-2 AP2 Signaling Treated/Control (T/C)” value falls from 0.88 to 0.30.
